For assay [1], the system named is rat uterus. The note with it: rat uterus assay; cited from earlier work.
The conditions of assay [2]: anesthetized rabbits; cited from earlier work.
For assay [3], the target named is T1, Angiotensin II (AII) receptor (Oryctolagus cuniculus, UniProt P34976).
T1 construct: evaluated in the anesthetized rabbit preparation made hypertensive by intravenous infusion of AII; from tissue; host or cells: whole living New Zealand White rabbit (in vivo blood pressure)
T1 sequence (P34976 1-359): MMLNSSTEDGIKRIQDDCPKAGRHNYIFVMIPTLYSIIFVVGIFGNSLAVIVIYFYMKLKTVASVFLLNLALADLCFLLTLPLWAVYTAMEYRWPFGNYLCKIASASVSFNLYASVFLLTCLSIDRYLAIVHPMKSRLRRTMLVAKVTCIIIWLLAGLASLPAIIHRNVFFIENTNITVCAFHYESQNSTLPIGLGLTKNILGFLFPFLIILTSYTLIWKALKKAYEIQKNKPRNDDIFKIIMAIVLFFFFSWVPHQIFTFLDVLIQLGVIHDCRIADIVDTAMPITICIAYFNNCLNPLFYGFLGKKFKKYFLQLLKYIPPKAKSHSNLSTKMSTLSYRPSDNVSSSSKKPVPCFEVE
Description: Hypotensive effect as ARBs in anesthetized rabbits made hypertensive by AII infusion. It is filed as in vivo, New Zealand White rabbits. The note with it: AII infusion 1 μg/min; for Mean BP after 1st bolus (300 ng/kg) / Mean BP after 1st bolus (150 ng/kg): IV bolus; for Mean BP after 1st bolus (300 ng/kg) / Mean BP after 2nd bolus (600 ng/kg) / Mean BP after 1st bolus (150 ng/kg) / Mean BP after 2nd bolus (300 ng/kg): mean ± S.D.; for Mean BP after 2nd bolus (600 ng/kg): second IV bolus 15 min after 300 ng/kg; for Mean BP after 2nd bolus (300 ng/kg): second IV bolus 15 min after 150 ng/kg. On the procedure:
The hypotensive effect of these compounds as ARBs was evaluated in the anesthetized rabbit preparation made hypertensive by intravenous infusion of AII. In brief, adult normotensive male New Zealand White rabbits weighing between 2.5 and 3.5 kg were anesthetized by pentobarbitone (30 mg/kg), intubated and mechanically ventilated with 100% oxygen using a respirator for small animals (MD Industries, Mobile, Ala., USA). The tidal volume was 15 ml and the rate was adjusted to keep blood gases within normal range. Two polyethylene catheters were inserted, one in the carotid artery for continuous blood pressure monitoring via a transducer attached to a multichannel recorder (Nihon-Kohden, Model 6000, Japan) and the other one in the jugular vein for the administrations of solution made by diluting angiotensin II (ANGII) (Hypertension, CIBA) in 5% dextrose at final concentration of 5 μg/ml. Based on previous testing with this rabbit preparation submaximal angiotensin II-dependent hypertension was induced by infusing angiotensin via a syringe pump (Harvard Apparatus Pump 22, Harvard Apparatus, Natick, Mass., USA) at a constant rate of 0.2 ml/min (1 μg/min). Five minutes after the establishment of hypertension, two cumulative IV boluses of each compound were given via an ear vein 15 minutes apart. After the second bolus mean blood pressure was recorded for 30 minutes and the experiment was terminated. […]
Compounds E-P, H—P, H-Px, were also tested for the AngII receptor blocker properties, by testing their ability to block the hypertensive effect of AngII, using adult normotensive male New Zealand white rabbits. […] Values represent the mean blood pressure and are given as mean±S.D.

The test system of assay [4] is α2-AR. Description: Testing α2-agonist properties: BP response to norepinephrine bolus before and after compound in mice. It is filed as in vivo, Swiss Webster mice. The note with it: for suppression of the hypertensive effect of NE: NE bolus 30 minutes after injection of compound, higher dose (300) for E-P, 100 for H-P, H-Px and UK 14304; for BP after compound (100 μg/kg): iv 100 μg/kg; for BP after compound (300 μg/kg): iv 300 μg/kg. The protocol: Swiss Webster mice were anesthetized with 50 mg/kg pentobarbital and two lines were inserted, one in right iliac artery and the other in right iliac vein. Next morning the arterial line was connected to a blood pressure transducer and the mean BP was recorded with a Power lab/800 data acquisition system. The venous line was used for drug infusion.

Assay [5] is described as follows: Effect on mean BP in anesthetized normotensive rabbits (agonistic effect). In kind it is in vivo. The note with it: cumulative IV injections of 300-900 ng/kg.
Setting [6] is: group mean, after 100 μg/kg compound, second NE bolus 30 min after compound.
Setting [7] is: group mean, BP recorded after injection.
Where [8] appears, read: individual mice, 100 μg/kg compound.
Setting [9] is: individual mice, after 100 μg/kg compound.

Where “and” joins values, the source holds several entries; their conditions need not be identical. Equal values may be shown once. Marks after values point to notes of the source that are not given here.

Regarding [Sar^1, Lys^3, Glu^5]ANG II, the agonist activity entry in assay [1] and in assay [2] was “possesses agonist activity” each time.

On to `CCOc1nc2cccc(C(=O)O)c2n1Cc1ccc(-c2ccccc2-c2nnn[nH]2)cc1` [Candesartan], for which the “Cumulative % drop in mean BP after the 2nd bolus” value (“Cumulative % drop in mean BP” for short) in assay [3] (boluses 150 then 300 ng/kg) was −41 ± 3%.

Turning to `NCCc1cncn1Cc1ccccc1-c1nnn[nH]1` [H-Px], the “suppression of the hypertensive effect of NE” value (shortened to “suppression”) in assay [4] is listed as 42%. In addition, the “Δ2 = BP changes between second bolus of Norepinephrine and the new baseline BP after injection of compound” value (shortened to “Δ2 = BP changes between second bolus”) in assay [4] (group mean, 100 μg/kg compound) was 12.0 mmHg; in assay [4] (setting [8]) it was 15* mmHg and 11.0 mmHg and 13.0 mmHg. Also, the “BP after second bolus NE (0.12 μg/kg)” value was 128.3 mmHg in assay [4] (setting [6]); 114.0 mmHg and 136.0 mmHg and 135.0 mmHg in assay [4] (setting [9]). The “BP after compound (100 μg/kg)” value in assay [4] (setting [7]) was 125.3 mmHg; in assay [4] (individual mice), 129.0 mmHg and 125.0 mmHg and 122.0 mmHg. Moreover, in assay [4] (mice), the “dose required to suppress NE effect” value is 0.1 mg/kg. The “Mean BP after 1st bolus (300 ng/kg)” value in assay [3] stood at 148 ± 23 mmHg. Further, in assay [3], the “Mean BP after 2nd bolus (600 ng/kg)” value worked out at 131 ± 15 mmHg. Moreover, in assay [3] (boluses 300 then 600 ng/kg), the “Cumulative % drop in mean BP” value is on record as −24 ± 4%. Besides, in assay [5], the “effect on mean BP” value is recorded as “did not significantly affect mean BP”.

On to `CCCCC1=NC2(CCCC2)C(=O)N1Cc1ccc(-c2ccccc2-c2nnn[nH]2)cc1` [Irbesartan], for which, in assay [3], the “Mean BP after 1st bolus (150 ng/kg)” value is recorded as 141 ± 10 mmHg and the “Mean BP after 2nd bolus (300 ng/kg)” value came out at 133 ± 11 mmHg. The “Cumulative % drop in mean BP” value in assay [3] (boluses 150 then 300 ng/kg) is given as −24 ± 7%.

For the compound `Brc1c(NC2=NCCN2)ccc2nccnc12` [UK 14304, reference compound], the “suppression” value in assay [4] is 48%. Moreover, the “Δ2 = BP changes between second bolus” value was 15.8 mmHg in assay [4] (group mean, 100 μg/kg compound); 20.0 mmHg and 12.0 mmHg and 7.0 mmHg and 24.0 mmHg in assay [4] (individual mice, 100 μg/kg compound, listed as UK). Further, the “BP after second bolus NE (0.12 μg/kg)” value was 125.5 mmHg in assay [4] (setting [6]); 125.0 mmHg and 123.0 mmHg and 115.0 mmHg and 139.0 mmHg in assay [4] (individual mice, after 100 μg/kg compound, listed as UK). The “BP after compound (100 μg/kg)” value in assay [4] (setting [7]) was 109.8 mmHg; in assay [4] (individual mice, listed as UK), 105.0 mmHg and 111.0 mmHg and 108.0 mmHg and 115.0 mmHg. The “decrease in BP” value in assay [4] (mice, 100 Ilg/kg, control α2-agonist) is reported as 15 mmHg.

As for `CCCCc1nc(Cl)c(CO)n1Cc1ccc(-c2ccccc2-c2nn[nH]n2)cc1` [Losartan], in assay [3], the “Mean BP after 1st bolus (150 ng/kg)” value was 148 ± 6 mmHg and the “Mean BP after 2nd bolus (300 ng/kg)” value was 136 ± 3 mmHg. The “Cumulative % drop in mean BP” value in assay [3] (boluses 150 then 300 ng/kg) is −22 ± 5%.

On to `N=C(N)NCCc1cncn1Cc1ccccc1-c1nnn[nH]1` [E-P], for which, in assay [4], the “suppression” value turned out to be 45%. The “Δ2 = BP changes between second bolus” value is 23.0 mmHg in assay [4] (group mean, 100 μg/kg compound); 12.3 mmHg in assay [4] (group mean, 300 μg/kg compound); 32.0 mmHg and 14.0 mmHg in assay [4] (setting [8]); 8.0 mmHg and 13.0 mmHg and 16.0 mmHg in assay [4] (individual mice, 300 μg/kg compound). Further, the “BP after second bolus NE (0.12 μg/kg)” value in assay [4] (setting [6]) is 153.5 mmHg; in assay [4] (group mean, after 300 μg/kg compound), 124.0 mmHg; in assay [4] (setting [9]), 158.0 mmHg and 149.0 mmHg; in assay [4] (individual mice, after 300 μg/kg compound), 128.0 mmHg and 120.0 mmHg and 124.0 mmHg. Further, the “BP after compound (100 μg/kg)” value was 130.5 mmHg in assay [4] (setting [7]); 126.0 mmHg and 135.0 mmHg in assay [4] (individual mice). The “BP after compound (300 μg/kg)” value in assay [4] (group mean) is 111.7 mmHg; in assay [4] (individual mice) it was 120.0 mmHg and 107.0 mmHg and 108.0 mmHg. The dose required to suppress NE effect in assay [4] (mice) was determined as 0.3 mg/kg. The “Mean BP after 1st bolus (300 ng/kg)” value in assay [3] is listed as 149 ± 7 mmHg. For the same compound, the “Mean BP after 2nd bolus (600 ng/kg)” value in assay [3] was 140 ± 3 mmHg. In assay [3] (boluses 300 then 600 ng/kg), the “Cumulative % drop in mean BP” value was −15 ± 4%. The “effect on mean BP” value in assay [5] was “did not significantly affect mean BP”.

Source of the values: US20100216854A1, “1,3 AND 1,3,5 SUBSTITUTED IMIDAZOLES AS […]” (Eldrug S.A., priority 2007, published 2010).
